Source: patent US12622918B2, “Formulations and dosages for administering a compound that inhibits MCL1 protein” (Amgen Inc., priority 2019, dated 2026)

Tests used:
Dog MCL1 = Dog MCL1 (Canis lupus familiaris, UniProt Q8HYS5); assay: Cell-free TR-FRET BIM-binding assay, Dog MCL1; conditions: BIM-binding partner Dog MCL1; n = 3
Toledo = assay: Cell viability (CellTiterGlo), Toledo; type: cell-based; conditions: Homo sapiens, NHL, 24 hours, 10% FBS, read-out: AMS 176 IC50
Pharmacokinetics in dogs = type: in vivo
Excerpt: The pharmacokinetics (PK) of the compound of Formula I after single intravenous (IV) or oral administration were characterized in male CD1 mice, female athymic nude mice, male Nu/Nu mice, male Sprague Dawley rats, male beagle dogs, and male cynomolgus monkeys. The clearance (CL) of the compound was low in mice, rats, dogs, and monkeys relative to their hepatic blood flow. Volume of distribution at steady state (Vss) in mice, rats, dogs, and monkeys was variable across the species.

[1] = system: OPM2-Luc orthotopic tumors; assay: OPM2-Luc multiple myeloma orthotopic model, AMG 176 plus carfilzomib; type: in vivo; conditions: AMG 176 20 mg/kg orally once daily; carfilzomib 3 mg/kg IV twice weekly; day 4 until day 20; female NSG mice
Procedure: On day 0, female NSG mice were injected IV with 1×10^6 OPM2-Luc human OPM2-Luc multiple myeloma tumor cells transfected with the firefly luciferase gene.

Rabbit MCL1 = Rabbit MCL1 (Oryctolagus cuniculus, UniProt G1T2Q0); assay: Cell-free TR-FRET BIM-binding assay, Rabbit MCL1; conditions: BIM-binding partner Rabbit MCL1; n = 3
Sequence of Rabbit MCL1 (G1T2Q0 1-352): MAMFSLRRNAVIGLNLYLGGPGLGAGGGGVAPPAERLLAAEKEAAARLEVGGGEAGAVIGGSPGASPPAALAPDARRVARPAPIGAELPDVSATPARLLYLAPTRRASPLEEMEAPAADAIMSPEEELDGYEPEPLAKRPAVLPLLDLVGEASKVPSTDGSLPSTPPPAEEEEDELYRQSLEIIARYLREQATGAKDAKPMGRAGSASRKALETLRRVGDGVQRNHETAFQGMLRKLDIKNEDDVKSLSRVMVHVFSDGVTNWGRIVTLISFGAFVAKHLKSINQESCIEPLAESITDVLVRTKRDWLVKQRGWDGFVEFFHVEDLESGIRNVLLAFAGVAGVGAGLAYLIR

SU-OHL-6 = assay: Cell viability (CellTiterGlo), SU-OHL-6; type: cell-based; conditions: SU-OHL-6, NHL; 24 hours; 10% FBS; read-out: AMS 176 IC50
Ramos = assay: Cell viability (CellTiterGlo), Ramos; type: cell-based; conditions: Homo sapiens, NHL, 24 hours, 10% FBS, read-out: AMS 176 IC50
[2] = Plasma concentration in OPM2-Luc tumor-bearing mice; type: in vivo; conditions: 60 mg/kg oral gavage; female athymic nude mice
Procedure: (§1) Activation of the pro-apoptotic pore-forming protein BAK and proteolytic cleavage of the cysteine-aspartic acid protease caspase 3 (hallmarks of the induction of apoptosis) in MCL1-dependent OPM2-Luc multiple myeloma tumor cells served as a PD assay. Female athymic nude mice were injected with 5×10^6 cells in 0.1 mL subcutaneously (SC). […] Mice were euthanized 2, 4, 8, 12, and 24 hours postdose (n=3/group), terminal plasma samples were collected for PK analysis, and tumors were halved and snap frozen in liquid nitrogen for PK and molecular analyses. Tumor lysates were prepared for evaluation of BAK activation and caspase 3 cleavage using an electrochemiluminescence immunoassay. Tumors treated with vehicle (25% HPβCD, pH 8) served as a negative control and indicated the baseline level of apoptosis.

caspase 3 = assay: Caspase 3 cleavage in OPM2-Luc tumor xenografts (PD); type: in vivo, mice; conditions: for induction of caspase 3 cleavage: 4-, vs vehicle p<0.05
Procedure: as §1

human blood = assay: In vitro hemolysis of whole blood, human; conditions: highest concentration tested, 0.25 mg/mL
TF-1 = assay: Cell viability (CellTiterGlo), TF-1; type: cell-based; conditions: Homo sapiens; TF-1, AML; 24 hours; 10% FBS; read-out: AMS 176 IC50
dog blood = assay: In vitro hemolysis of whole blood, dog; conditions: 0.1 and 1.0 mg/mL, vehicles containing hydroxypropyl-β-cyclodextrin
Raji = assay: Cell viability (CellTiterGlo), Raji; type: cell-based; conditions: Homo sapiens, NHL, 24 hours, 10% FBS, read-out: AMS 176 IC50
[3] = Plasma protein binding in vitro; type: in vitro ADME
[4] = system: subjects with relapsed/refractory multiple myeloma; assay: Phase 1 FIH study, multiple myeloma part 1a (QD2); type: in vivo, human
Procedure: In part 1a, subjects were enrolled across 8 cohorts, with doses ranging from 30 to 240 mg/m^2 QD2. In part 1b, subjects were enrolled across 2 cohorts, with doses of 120/180-mg/m^2 or 120/240-mg/m^2.

[5] = molecular target: T1, MCL1-BAK protein-protein interaction (Homo sapiens, UniProt Q07820); assay: MCL1-BAK protein-protein interaction PD assay, HEK 293M MCL1(1-327)-Luc/BAK-Luc Matrigel plug model in mice; type: in vivo; conditions: for inhibition of MCL1-BAK protein-protein interaction, as measured by luciferase activity: 2-, vs vehicle p<0.0025, female athymic nude mice
T1 construct: human MCL1 encoding amino acids 1-327 and full-length human BAK; expressed in transfected cells; host or cells: HEK 293M cells, stably transfected, in Matrigel plugs in female athymic nude mice
T1 sequence (Q07820 1-327): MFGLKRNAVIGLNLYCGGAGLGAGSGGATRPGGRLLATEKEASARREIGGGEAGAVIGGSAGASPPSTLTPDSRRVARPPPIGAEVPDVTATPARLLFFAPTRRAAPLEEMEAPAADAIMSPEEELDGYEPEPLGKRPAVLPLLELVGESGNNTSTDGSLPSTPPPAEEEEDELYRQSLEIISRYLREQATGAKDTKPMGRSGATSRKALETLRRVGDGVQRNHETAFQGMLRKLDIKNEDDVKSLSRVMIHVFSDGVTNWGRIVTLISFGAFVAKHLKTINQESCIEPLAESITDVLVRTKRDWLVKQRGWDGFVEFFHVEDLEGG
Excerpt: The inhibition of MCL1-BAK protein-protein interaction was used as a pharmacodynamics (PD) assay in HEK 293M cells stably transfected so as to express the N-terminal fragment of human MCL1 encoding amino acids 1-327 and full-length human BAK, linked to the N- and C-terminal fragments of firefly luciferase, respectively (interaction between MCL1 [1-327] and BAK results in the complementation of the C- and N-terminal fragments of luciferase and the formation of active luciferase).

[6] = system: OPM2 multiple myeloma tumor cell line; assay: Viability of OPM2 cells; type: cell-based; conditions: Homo sapiens
Karoas620 = assay: Cell viability (CellTiterGlo), Karoas620; type: cell-based; conditions: Karoas620, Multiple myeloma; 24 hours; 10% FBS; read-out: AMS 176 IC50
HEL 92.1.7 = assay: Cell viability (CellTiterGlo), HEL 92.1.7; type: cell-based; conditions: Homo sapiens; HEL 92.1.7, AML; 24 hours; 10% FBS; read-out: AMS 176 IC50
rat blood = assay: In vitro hemolysis of whole blood, rat; conditions: 0.048, 0.12, 0.24, 1.2, and 2.4 mg/mL, vehicles containing hydroxypropyl-β-cyclodextrin

Sequence of Dog MCL1 (Q8HYS5 whole entry): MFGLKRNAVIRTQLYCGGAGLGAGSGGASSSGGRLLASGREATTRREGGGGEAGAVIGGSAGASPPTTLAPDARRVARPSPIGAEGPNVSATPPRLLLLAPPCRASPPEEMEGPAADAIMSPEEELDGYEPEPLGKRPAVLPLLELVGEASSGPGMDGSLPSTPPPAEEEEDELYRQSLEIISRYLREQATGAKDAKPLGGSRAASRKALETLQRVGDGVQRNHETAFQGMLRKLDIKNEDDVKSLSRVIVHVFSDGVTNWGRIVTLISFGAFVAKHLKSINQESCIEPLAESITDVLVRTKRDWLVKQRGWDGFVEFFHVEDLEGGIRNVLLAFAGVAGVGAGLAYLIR

CO[C@H]1/C=C/C[C@H](C)[C@@H](C)S(=O)(=O)NC(=O)c2ccc3c(c2)N(C[C@@H]2CC[C@H]21)C[C@@]1(CCCc2cc(Cl)ccc21)CO3 [AMG 176]
IC50 (Dog MCL1): 0.284 nM | IC50 (Toledo): 9700 nM | mean terminal elimination half-life (t1/2,z) (Pharmacokinetics in dogs): 10.8 h | TGI (tumor burden) [1]: 86% | IC50 (Rabbit MCL1): 0.191 nM | IC50 (SU-OHL-6): 165 nM | IC50 (Ramos): 34 nM | time point of peak AMG 176 plasma concentration [2]: 4 h | induction of caspase 3 cleavage (caspase 3; 20 mg/kg oral gavage, 8-, and 12-hour time points): Statistically significant induction of caspase 3 cleavage | induction of caspase 3 cleavage (caspase 3; 30 mg/kg oral gavage, 2-, 8-, and 12-hour time points): Statistically significant induction of caspase 3 cleavage | induction of caspase 3 cleavage (caspase 3; 60 mg/kg oral gavage, 2-, 8-, 12-, and 24-hour time points): Statistically significant induction of caspase 3 cleavage | induction of cleaved caspase 3 (caspase 3; 60 mg/kg, 2 hours postdose, persisted to 12 hours): approximately 7.5 fold | cleaved caspase levels above control (caspase 3; 60 mg/kg, 24 hours postdose): 5 fold | hemolysis of whole blood (human blood): not hemolytic | IC50 (TF-1): 2090 nM | hemolysis of whole blood (dog blood): cased hemolysis | IC50 (Raji): 3550 nM | plasma protein binding [3]: highly plasma-protein bound | Grade 3 adverse events, subjects ([4]; MM part 1a): 65% | Serious adverse events, subjects ([4]; MM part 1a): 31% | adverse events considered related to AMG 176, subjects ([4]; MM part 1a): 69% | adverse events leading to discontinuation of investigational product ([4]; MM part 1a): No adverse event led to discontinuation | anemia of grade 3 or higher ([4]; MM part 1a): 15% | decreased neutrophil count of grade 3 or higher ([4]; MM part 1a): 8% | decreased white blood cell count of grade 3 or higher ([4]; MM part 1a): 8% | grade 4 adverse events, subjects ([4]; MM part 1a): 31% | hypertension of grade 3 or higher ([4]; MM part 1a): 8% | neutropenia of grade 3 or higher ([4]; MM part 1a): 31% | related diarrhea ([4]; MM part 1a): 19% | related nausea ([4]; MM part 1a): 23% | related neutropenia ([4]; MM part 1a): 23% | treatment-emergent adverse events, subjects ([4]; MM part 1a QD2, 26 subjects): 96% | anemia, subjects ([4]; MM part 1a, any grade): 27% | diarrhea, subjects ([4]; MM part 1a, any grade): 31% | fatigue, subjects ([4]; MM part 1a, any grade): 27% | nausea, subjects ([4]; MM part 1a, any grade): 35% | neutropenia, subjects ([4]; MM part 1a, any grade): 31% | dose-limiting toxicity (DLT) reported ([4]; MM part 1a, 1 subject in the 240 mg/m^2 cohort, fatal): tumor lysis syndrome | exposures (Cmax and AUC) versus dose ([4]; MM part 1a, 25 subjects, preliminary): generally increased with increasing doses | fatal adverse events ([4]; MM part 1a, hepatic failure (50 mg/m^2, not related), tumor lysis syndrome (240 mg/m^2, related)): Two | inhibition of MCL1-BAK protein-protein interaction, as measured by luciferase activity ([5]; 3 mg/kg, 8-, 12-, and 24-hour time points): Statistically significant inhibition | inhibition of MCL1-BAK protein-protein interaction, as measured by luciferase activity ([5]; 10 mg/kg, 4-, 8-, and 12-hour time points): Statistically significant inhibition | inhibition of MCL1-BAK protein-protein interaction, as measured by luciferase activity ([5]; 30 mg/kg, 4-, 8-, 12-, and 24-hour time points): Statistically significant inhibition | inhibition of the interaction between human MCL1 and human BAK in vivo ([5]; summary statement): dose-dependent inhibition | IC50 ([6]; OPM-2, growth medium containing 5% human serum): 703 nM | IC50 ([6]; OPM-2, growth medium containing 10% fetal bovine serum): 236 nM | IC50 ([6]; OPM-2, serum-free growth medium): 15.5 nM | IC50 (Karoas620): 487 nM | IC50 (HEL 92.1.7): 5990 nM | hemolysis of whole blood (rat blood): cased hemolysis
